Read-outs that look alike come from different tables or passages of the source.
How the values were obtained:
DU145 prostate carcinoma = tested on: DU145 prostate carcinoma
From the text: Dosing was initiated on Day 1. […] Treatment groups are detailed in Table 5.

A375 melanoma = tested on: A375 melanoma
Description: Dosing was initiated on Day 1. […] Taxotere was given i.v. on a qd x 1 schedule at a dose of 70 mg/kg. […] The study was terminated on Day 60. Treatment groups are detailed in Table 9.

[1] = tested on: Panc-1 pancreatic carcinoma; experiment: In vivo evaluation against Panc-1 human pancreatic carcinoma (Example 17)
Description: The dosing volume was 0.3 ml per 20 g mouse.
Female NCr-nude mice were implanted subcutaneously with 1 mm^3 Panc-1 pancreatic carcinoma fragments in the flank and sorted into treatment groups of six mice each. […] Dosing was initiated on Day 1. The antitumor compounds were given i.v. at an estimated maximum tolerated dose (MTD) appropriate for each agent on a qd x 1 schedule (single administration of compound). […] The vehicle was administered i.v. to control mice in Group 1 on the qd x 1 schedule. The study was terminated on Day 60.
The mean days of survival is the number of days after which a neoplasm reached a size of 1.5 g and the animal was euthanized. A complete response is obtained if the tumor shrinks to a size smaller than its size on Day 1 of the study.

HCT116 = experiment: In Vitro cytotoxicity measured by the cell colony formation assay; assay type: cell-based, human; conditions: Homo sapiens, HCT-116; read-out: IN VITRO ID 50 HCT116
Summary of the method: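 Four hundred cells per dish in McCoy's 5a medium with 10% FBS were allowed to attach for 5 h at 37 °C. They were then exposed to compound for 72 h at 37 °C, added as a 10× stock made fresh in medium. After HBSS rinsing and refeeding, colonies were counted after 7 days.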

VM46 colon carcinoma = tested on: VM46 colon carcinoma
Description: Dosing was initiated on Day 1. […] Taxotere was given i.v. at a dose of 70 mg/kg on a qd x 1 schedule.

[2] = number of 5 mice, i.v. qd x 1 at estimated MTD (Taxol 24 mg/kg split), Day 91
[3] = number of mice, i.v. qd x 1 at estimated MTD (Taxol 24 mg/kg, Taxotere 70 mg/kg), 6 mice/group (Taxotere 7), Day 60
[4] = Panc-1 (Example 17), i.v. qd x 1, six mice per group
[5] = number of mice, i.v. qd x 1, mg/kg: Taxol 36, 0499 77, 0503 72.6, 0670 123.1, 0706 107.6, 0838 72.6, 0854 76.9, 6 mice/group, Day 60
[6] = number of mice, i.v. qd x 1, mg/kg: Taxol 24, 0499 77, 0503 72.6, 0670 123.1, 0706 107.6, 0838 72.6, 0854 46.6, 0983 67.4, Taxotere 70, 6 mice/group, Day 64

Q: What does the source list for `CCC(=O)O[C@H]1C(=O)[C@@]2(C)[C@H]([C@H](OC(=O)c3ccccc3)[C@]3(O)C[C@H](OC(=O)[C@H](O)[C@H](C=C(C)C)NC(=O)OC(C)(C)C)C(C)=C1C3(C)C)[C@]1(OC(C)=O)CO[C@@H]1C[C@@H]2O` [Compound 0499]?
A: Mean Score (DU145 prostate carcinoma; i.v. qd x 1 at estimated MTD (Taxol 24 mg/kg split), 5 mice/group, Day 91): 4.4 ± 1.4; MDS (n) (DU145 prostate carcinoma; mean days of survival until tumor reached 1.5 g, i.v. qd x 1 at estimated MTD (Taxol 24 mg/kg as two split doses), 5 mice/group, study ended Day 91): 67.2 ± 8.3 (3) days; Stable Disease (DU145 prostate carcinoma; number of 5 mice, tumor did not reach 1.5 g by end of study, i.v. qd x 1 at estimated MTD (Taxol 24 mg/kg split), Day 91): 1; Toxic Deaths (DU145 prostate carcinoma; number of 5 mice, i.v. qd x 1 at estimated MTD (Taxol 24 mg/kg as two split doses), Day 91): 0; Complete Response (DU145 prostate carcinoma; [2]): 1; Partial Response (DU145 prostate carcinoma; [2]): 0; Survivors (DU145 prostate carcinoma; [2]): 2; Stable Disease (A375 melanoma; A375, i.v. qd x 1, six mice per group): one; MDS (n) (A375 melanoma; mean days of survival until neoplasm reached 2.0 g, i.v. qd x 1 at estimated MTD (Taxol 24 mg/kg, Taxotere 70 mg/kg), 6 mice/group (Taxotere 7), terminated Day 60): 30.5 ± 3.5 (3) days; Toxic Deaths (A375 melanoma; number of mice, i.v. qd x 1 at estimated MTD (Taxol 24 mg/kg, Taxotere 70 mg/kg), 6 mice/group (Taxotere 7)): 2; Complete Response (A375 melanoma; [3]): 0; Partial Response (A375 melanoma; [3]): 0; Stable Disease (A375 melanoma; [3]): 1; Survivors (A375 melanoma; [3]): 1; Mean Score (A375 melanoma; tumor scoring system, i.v. qd x 1 at estimated MTD (Taxol 24 mg/kg, Taxotere 70 mg/kg), 6 mice/group (Taxotere 7)): 2.3 ± 0.9; MDS ([1]; Panc-1 (Example 17), i.v. qd x 1 (compounds estimated MTD; Taxol 36 mg/kg split), days until tumor 1.5 g, ended Day 60): 47 to 56 days; Partial Response [1, 4]: 1; Stable Disease [1, 4]: one; complete responses [1, 4]: 2; MDS (n) ([1]; mean days of survival until neoplasm reached 1.5 g, i.v. qd x 1, mg/kg: Taxol 36, 0499 77, 0503 72.6, 0670 123.1, 0706 107.6, 0838 72.6, 0854 76.9, 6 mice/group, terminated Day 60): 56.1 ± 1.0 (2) days; Toxic Deaths ([1]; number of mice, i.v. qd x 1, mg/kg: Taxol 36, 0499 77, 0503 72.6, 0670 123.1, 0706 107.6, 0838 72.6, 0854 76.9, 6 mice/group): 0; Complete Response [1, 5]: 2; Partial Response [1, 5]: 1; Stable Disease [1, 5]: 1; Survivors [1, 5]: 4; Mean Score ([1]; tumor scoring system, i.v. qd x 1, mg/kg: Taxol 36, 0499 77, 0503 72.6, 0670 123.1, 0706 107.6, 0838 72.6, 0854 76.9, 6 mice/group): 7.4 ± 1.4; IC50 (HCT116): < 1 nM; tolerability (VM46 colon carcinoma; VM46, i.v. qd x 1): well-tolerated; Toxic Deaths (VM46 colon carcinoma; VM46, i.v. qd x 1, six mice per group): no toxic deaths; Mean Score (VM46 colon carcinoma; iv): 2 ± 0.3; MDS (n) (VM46 colon carcinoma; iv, 1536 h): 41.9 ± 4.2 (5) days; Toxic Deaths (VM46 colon carcinoma; number of mice, i.v. qd x 1, mg/kg: Taxol 24, 0499 77, 0503 72.6, 0670 123.1, 0706 107.6, 0838 72.6, 0854 46.6, 0983 67.4, Taxotere 70, 6 mice/group): 0; Complete Response (VM46 colon carcinoma; [6]): 0; Partial Response (VM46 colon carcinoma; [6]): 0; Stable Disease (VM46 colon carcinoma; [6]): 1; Survivors (VM46 colon carcinoma; [6]): 1
